# Data taken from paper PMC4812296, “A chemical family-based strategy for uncovering hidden bioactive molecules and multicomponent interactions in herbal medicines” (Scientific Reports, 2016).
# Biological target: T1, thrombin (Bos taurus, UniProt P00735)
# T1 construct: gene F2
# Test: chromogenic S-2238 hydrolysis assay, bovine plasma thrombin
# Type: biochemical
row,SMILES,IC50
1,"Cc1cccc2c3c(ccc12)C1=C(C(=O)C3=O)[C@@H](C)CO1 (single isomer, unassigned) [peak 15, Dihydrotanshinone I]",92 ± 5 µM
2,"C[C@H]1COC2=C1C(=O)C(=O)c1c2ccc2c1CCCC2(C)C (single isomer, unassigned) [peak 16, Cryptotanshinone]",102 ± 4 µM
3,"Cc1coc2c1C(=O)C(=O)c1c-2ccc2c(C)cccc12 [peak 17, Tanshinone I]",333 ± 28 µM
4,"Cc1coc2c1C(=O)C(=O)c1c-2ccc2c1CCCC2(C)C [peak 18, Tanshinone IIA]",39 ± 1 µM
